Consider 14 compounds from patent US5430062A, “Stilbene derivatives as anticancer agents” (priority 1993, dated 1995).

Structures can show the parent of a compound that is named as a salt. Where two headings read alike, the source gives them in different places. Where only a bound is given, the exact number is not on record here.

For one series, the system named is M14 melanoma. Put plainly: Cytotoxicity, M14.
The next series concerns HL-60 (TB) leukemia. The series can be described thus: Cytotoxicity, HL-60(TB) leukemia. Particulars: read-out: cytotoxicity GI50, HL-60(TB), 50% growth inhibition, average of two determinations, 8640 min, 8640 min.
A further series concerns CAKI-1 renal cancer. The series can be described thus: Cytotoxicity, CAKI-1.
In series [1] the test system is DMS 273 small cell lung cancer. Put plainly: Cytotoxicity, DMS 273. Particulars: read-out: cytotoxicity GI50, DMS 273, 50% growth inhibition, average of two determinations, 8640 min, 8640 min.
A further series concerns OVCAR-3 ovarian cancer. Put plainly: Cytotoxicity, OVCAR-3.
Series [2] concerns tubulin. The series can be described thus: Inhibition of tubulin polymerization (turbidimetry). The class given is biochemical, bovine.
A further series relates to COLO 205 colon cancer. Put plainly: Cytotoxicity, COLO 205. Particulars: read-out: cytotoxicity GI50, COLO 205, 50% growth inhibition, average of two determinations, 8640 min, 8640 min.
Another series deals with SF-295 CNS cancer. Put plainly: Cytotoxicity, SF-295. The conditions noted are these: read-out: cytotoxicity GI50, SF-295, 50% growth inhibition, average of two determinations, 8640 min, 8640 min.
Series [3] can be described thus: Stability in DMSO solution at room temperature (NMR). The class given is physicochemical. Particulars: protected from light, read-out: formation of the cis isomer (1a). Here is the method: The cytotoxic compounds gave reproducible results in the tubulin polymerization assay with the exception of the trans stilbenes 1b and 6n. […] The cytotoxic properties of these two agents may similarly result from chemical changes in solution. […] The ratio of 6n:5n was 1:1 after 24 hours of the dissolution of pure 6n in DMSO at room temperature.

For series [4], the system named is tubulin. The series can be described thus: Inhibition of [3H]colchicine binding to tubulin (DEAE-filter). Further details: species or system bovine.
The next series concerns MCF-7 breast carcinoma. The series can be described thus: MTT cytotoxicity assay, MCF-7. The conditions noted are these: Homo sapiens, MCF7, […], read-out: Cytotoxicity ED50, MCF-7.
Another series has as its system MLM melanoma. The series can be described thus: MTT cytotoxicity assay, MLM. Particulars: […], read-out: Cytotoxicity ED50, MLM.
Series [5] relates to HT-29 colon adenocarcinoma. The series can be described thus: MTT cytotoxicity assay, HT-29. Particulars: Homo sapiens, HT-29, […], read-out: Cytotoxicity ED50, HT-29.
The subject of series [6] is tubulin. Particulars: cited from earlier work.
Another series deals with A-549 lung carcinoma. Put plainly: MTT cytotoxicity assay, A-549. The conditions noted are these: Homo sapiens, A549, […], read-out: Cytotoxicity ED50, A-549.
[7] abbreviates: read-out: cytotoxicity GI50, M14, 50% growth inhibition, average of two determinations, 8640 min, Hydrochloride.
The mark [8] stands for this setting: read-out: cytotoxicity GI50, CAKI-1, 50% growth inhibition, average of two determinations, 8640 min, Hydrochloride.
The mark [9] stands for this setting: read-out: cytotoxicity GI50, OVCAR-3, 50% growth inhibition, average of two determinations, 8640 min, Hydrochloride.
Where [10] appears, read: Table X, different glutamate preparation (1M monosodium glutamate and GTP), Hydrochloride, read-out: inhibn of tubulin polymn IC50 (±SD).
The mark [11] stands for this setting: benzylanilines, Table X series, read-out: tubulin polymerization IC50.
[12] abbreviates: read-out: cytotoxicity GI50, M14; 50% growth inhibition; average of two determinations; 8640 min.
[13] abbreviates: read-out: cytotoxicity GI50, CAKI-1; 50% growth inhibition; average of two determinations; 8640 min.
[14] abbreviates: read-out: cytotoxicity GI50, OVCAR-3; 50% growth inhibition; average of two determinations; 8640 min.
[15] abbreviates: Table X, different glutamate preparation (1M monosodium glutamate and GTP), read-out: inhibn of tubulin polymn IC50 (±SD).
Setting [16] is: read-out: cytotoxicity GI50, M14, 50% growth inhibition, average of two determinations, 8640 min.
The mark [17] stands for this setting: read-out: cytotoxicity GI50, CAKI-1, 50% growth inhibition, average of two determinations, 8640 min.
[18] abbreviates: read-out: cytotoxicity GI50, OVCAR-3, 50% growth inhibition, average of two determinations, 8640 min.

As for `CCOc1ccc(NCc2cc(OC)c(OC)c(OC)c2)cc1` [110d, 4-Ethoxy-N-(3,4,5-trimethoxybenzyl)aniline Hydrochloride], the concentration for 50% growth inhibition (GI50) in the series with M14 melanoma (setting [7]) was determined as 532 nM; in the series on HL-60 (TB) leukemia (Hydrochloride), 448 nM; with CAKI-1 renal cancer (setting [8]) it was 1050 nM; in series [1] (Hydrochloride), 961 nM; in the series on OVCAR-3 ovarian cancer (setting [9]), 464 nM; in the series on COLO 205 colon cancer (Hydrochloride), 538 nM. For the same compound, the GI50 with SF-295 CNS cancer (Hydrochloride) came to 418 nM. Further, the IC50 with tubulin [2] (setting [10]) and in the series with tubulin [2] (setting [11]) was 11000 nM in each case.
For `CCCc1ccc(N=Cc2cc(OC)c(OC)c(OC)c2)cc1` [108g, 4-n-Propyl-N-(3,4,5-trimethoxybenzylidene)aniline], the GI50 in the series with M14 melanoma (setting [12]) is greater than 100000 nM; in the series with HL-60 (TB) leukemia, 22600 nM; with CAKI-1 renal cancer (setting [13]), greater than 100000 nM; in series [1] it was greater than 100000 nM; with OVCAR-3 ovarian cancer (setting [14]), greater than 100000 nM; in the series on COLO 205 colon cancer, greater than 100000 nM. In addition, in the series with SF-295 CNS cancer, the GI50 is greater than 100000 nM. For the same compound, the IC50 in the series on tubulin [2] (setting [15]) is greater than 40000 nM.
In the case of `CCc1ccc(NCc2cc(OC)c(OC)c(OC)c2)cc1` [110b, 4-Ethyl-N-(3,4,5-trimethoxybenzyl)aniline Hydrochloride], the GI50 was found to be 437 nM in the series with M14 melanoma (setting [7]); 245 nM with HL-60 (TB) leukemia (Hydrochloride); 818 nM in series [1] (Hydrochloride); 405 nM in the series with OVCAR-3 ovarian cancer (setting [9]); 352 nM in the series on COLO 205 colon cancer (Hydrochloride); 339 nM in the series with SF-295 CNS cancer (Hydrochloride). Also, the IC50 in the series on tubulin [2] (setting [10]) turned out to be 7200 nM; with tubulin [2] (benzylanilines, Table X series, Hydrochloride, read-out: tubulin polymerization IC50) it was 7200 nM.
As to `COc1cc(CNc2ccc(SC)cc2)cc(OC)c1OC` [109e, 4-Methylthio-N-(3,4,5-trimethoxybenzyl)aniline], the GI50 in the series on M14 melanoma (setting [16]) worked out at 5260 nM; with HL-60 (TB) leukemia, 3700 nM; with CAKI-1 renal cancer (setting [17]) it was 32000 nM; in [1], 3090 nM; in the series on OVCAR-3 ovarian cancer (setting [18]), 5930 nM; in the series with COLO 205 colon cancer it was 3880 nM. In addition, in the series with SF-295 CNS cancer, the GI50 turned out to be 7280 nM. Moreover, the IC50 in the series on tubulin [2] (setting [15]) was greater than 40000 nM.
Take `CCc1ccc(NCc2cc(OC)c(OC)c(OC)c2)cc1` [109b, 4-Ethyl-N-(3,4,5-trimethoxybenzyl)aniline]: the GI50 in the series on M14 melanoma (setting [16]) was found to be 315 nM; in the series with HL-60 (TB) leukemia, 168 nM; in the series on CAKI-1 renal cancer (setting [13]) it was 354 nM; in [1], 135 nM; in the series on OVCAR-3 ovarian cancer (setting [18]), 283 nM; in the series on COLO 205 colon cancer it was 344 nM. The concentration for 50% growth inhibition (GI50) in the series with SF-295 CNS cancer turned out to be 266 nM. Besides, the IC50 with tubulin [2] (setting [15]) and in the series on tubulin [2] (setting [11]) was 3000 nM in each case.
Regarding `COc1ccc(/C=C/c2cc(OC)c(OC)c(OC)c2)cc1O` [compound 1b, reference compound], the degraded at […] in [3] (four weeks) was roughly 10%. Also, the degraded at 336 h in series [3] (two weeks) is roughly 3%.
Turning to `COc1cc(CNc2ccc(C)cc2)cc(OC)c1OC` [109a, 4-Methyl-N-(3,4,5-trimethoxybenzyl)aniline], the GI50 with M14 melanoma (setting [16]) came out at 150 nM; in the series with HL-60 (TB) leukemia it was 122 nM; in series [1], 92.6 nM; in the series on COLO 205 colon cancer it was 152 nM; with SF-295 CNS cancer it was 163 nM. The IC50 in the series with tubulin [2] (setting [15]) and with tubulin [2] (setting [11]) was 6000 nM throughout.
For the compound `COc1cc(CNc2ccc(SC)cc2)cc(OC)c1OC` [110e, 4-Methylthio-N-(3,4,5-trimethoxybenzyl)aniline Hydrochloride], the GI50 was determined as 4840 nM with M14 melanoma (setting [7]); 3290 nM with HL-60 (TB) leukemia (Hydrochloride); 16300 nM in the series on CAKI-1 renal cancer (setting [8]); 4910 nM in series [1] (Hydrochloride); 4850 nM in the series with OVCAR-3 ovarian cancer (setting [9]); 3600 nM in the series on COLO 205 colon cancer (Hydrochloride). For the same compound, the GI50 with SF-295 CNS cancer (Hydrochloride) is 3410 nM. Also, the IC50 in the series with tubulin [2] (setting [10]) and in the series on tubulin [2] (setting [11]) was 16000 nM in each case.
Turning to `CCOc1ccc(NCc2cc(OC)c(OC)c(OC)c2)cc1` [109d, 4-Ethoxy-N-(3,4,5-trimethoxybenzyl)aniline], the concentration for 50% growth inhibition (GI50) in the series on M14 melanoma (setting [16]) was 403 nM; in the series with HL-60 (TB) leukemia, 296 nM; in the series on CAKI-1 renal cancer (setting [13]) it was 2040 nM; in [1], 296 nM; with OVCAR-3 ovarian cancer (setting [18]), 340 nM; with COLO 205 colon cancer it was 432 nM. Also, in the series with SF-295 CNS cancer, the GI50 was determined as 274 nM. For the same compound, the IC50 with tubulin [2] (setting [15]) amounted to 12000 nM.
As to `COc1cc(C=Nc2ccc(C(C)C)cc2)cc(OC)c1OC` [108f, 4-Isopropyl-N-(3,4,5-trimethoxybenzylidene)aniline], the GI50 in the series on M14 melanoma (setting [12]) was greater than 100000 nM; in the series on HL-60 (TB) leukemia it was greater than 100000 nM; in the series on CAKI-1 renal cancer (setting [13]) it was greater than 100000 nM; in [1], 52500 nM; in the series on OVCAR-3 ovarian cancer (setting [14]) it was greater than 100000 nM; in the series with COLO 205 colon cancer, greater than 100000 nM. Besides, the GI50 in the series with SF-295 CNS cancer is greater than 100000 nM. The IC50 with tubulin [2] (setting [15]) was greater than 40000 nM.
As to `COc1ccc(NCc2cc(OC)c(OC)c(OC)c2)cc1` [110c, 4-Methoxy-N-(3,4,5-trimethoxybenzyl)aniline Hydrochloride], the GI50 with M14 melanoma (setting [12]) was determined as 2380 nM; in the series with HL-60 (TB) leukemia (Hydrochloride), 834 nM; in the series with CAKI-1 renal cancer (setting [8]), 2500 nM; in series [1] (Hydrochloride), 534 nM; with OVCAR-3 ovarian cancer (setting [9]), 1960 nM; in the series on COLO 205 colon cancer (Hydrochloride), 1660 nM. Moreover, the concentration for 50% growth inhibition (GI50) in the series with SF-295 CNS cancer (Hydrochloride) is 2320 nM. Also, the IC50 in the series on tubulin [2] (setting [10]) and with tubulin [2] (setting [11]) was 8900 nM throughout.
`COc1ccc(/C=C\c2cc(OC)c(OC)c(OC)c2)cc1O` [compound 1a, reference compound]: in the series on tubulin [4], the “inhibition of colchicine binding (in words)” value is given as “nearly total inhibition of colchicine binding”. Further, the IC50 is 0.0038 nM in the series with MCF-7 breast carcinoma, 0.014 nM in the series on MLM melanoma, 0.012 nM in [5] and 0.0012 nM with A-549 lung carcinoma. Further, the “competitive inhibition of colchicine binding” value in the series with tubulin [6] was “competitively inhibit the binding of radiolabeled colchicine to tubulin”.
For the compound `COc1ccc(NCc2cc(OC)c(OC)c(OC)c2)cc1` [109c, 4-Methoxy-N-(3,4,5-trimethoxybenzyl)aniline], the 50% growth inhibitory concentration (GI50) was 115 nM in the series with HL-60 (TB) leukemia; 458 nM in the series with CAKI-1 renal cancer (setting [17]); 141 nM in series [1]; 363 nM in the series on OVCAR-3 ovarian cancer (setting [18]); 235 nM with COLO 205 colon cancer; 266 nM in the series with SF-295 CNS cancer. Moreover, in the series on tubulin [2] (setting [15]), the IC50 is 4600 nM.
Consider `CCOc1ccc(N=Cc2cc(OC)c(OC)c(OC)c2)cc1` [108d, 4-Ethoxy-N-(3,4,5-trimethoxybenzylidene)aniline], for which the GI50 (in the series on M14 melanoma (setting [12]); in the series on HL-60 (TB) leukemia; in the series with CAKI-1 renal cancer (setting [13]); in [1]; in the series with OVCAR-3 ovarian cancer (setting [14]); with SF-295 CNS cancer) was greater than 100000 nM throughout. Moreover, the IC50 with tubulin [2] (setting [15]) is greater than 40000 nM.
